Experimental data as given in ChEMBL document CHEMBL1921711, “Transformation of quercitols into 4-methylenecyclohex-5-ene-1,2,3-triol derivatives, precursors for the chemical chaperones N-octyl-4-epi-β-valienamine (NOEV) and N-octyl-β-valienamine (NOV)” (Bioorg Med Chem Lett, 2011).
Activity calls are given as the source filed them. The calls are words filed in the database; no cut-off is given here.

Assays:
[1] = target: T1, Beta-galactosidase (Bos taurus, UniProt Q58D55); assay: Inhibition of bovine liver beta-galactosidase by spectrometry
T1 sequence (Q58D55 whole entry): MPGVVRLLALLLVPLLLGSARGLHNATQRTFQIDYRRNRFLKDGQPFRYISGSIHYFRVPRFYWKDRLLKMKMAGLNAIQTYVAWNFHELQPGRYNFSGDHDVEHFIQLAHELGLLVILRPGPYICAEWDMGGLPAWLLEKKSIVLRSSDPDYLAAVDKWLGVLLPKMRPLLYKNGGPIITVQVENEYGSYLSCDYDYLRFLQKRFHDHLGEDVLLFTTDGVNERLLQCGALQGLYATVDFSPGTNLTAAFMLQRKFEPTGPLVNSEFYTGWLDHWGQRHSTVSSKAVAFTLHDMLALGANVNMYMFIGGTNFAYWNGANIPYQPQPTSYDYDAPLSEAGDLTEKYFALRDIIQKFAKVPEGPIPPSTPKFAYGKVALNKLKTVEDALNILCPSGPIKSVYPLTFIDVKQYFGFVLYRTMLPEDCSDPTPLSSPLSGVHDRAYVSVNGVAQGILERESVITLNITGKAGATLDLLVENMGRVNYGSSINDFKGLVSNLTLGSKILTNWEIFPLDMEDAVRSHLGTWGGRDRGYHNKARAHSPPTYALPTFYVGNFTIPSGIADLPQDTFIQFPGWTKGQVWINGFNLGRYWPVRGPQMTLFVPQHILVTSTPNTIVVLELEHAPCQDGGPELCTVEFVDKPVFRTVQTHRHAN

[2] = (§1) Inhibition of almonds beta-glucosidase by spectrometry; set-up: species or system Prunus dulcis
[3] = target: Alpha-galactosidase (Coffea arabica, UniProt Q42656); assay: Inhibition of green coffee beans alpha-galactosidase by spectrometry
[4] = tested on: Helix pomatia; assay: Inhibition of helix pomatia beta-mannosidase by spectrometry
[5] = tested on: Canavalia ensiformis; assay: Inhibition of jack beans alpha-mannosidase by spectrometry
[6] = species: Homo sapiens; assay: Inhibition of human placental alpha-fucosidase by spectrometry
[7] = target: T2, Beta-galactosidase (Aspergillus oryzae, UniProt Q2U7N3); assay: Inhibition of Aspergillus oryzae beta-galactosidase by spectrometry
T2 sequence (Q2U7N3 whole entry): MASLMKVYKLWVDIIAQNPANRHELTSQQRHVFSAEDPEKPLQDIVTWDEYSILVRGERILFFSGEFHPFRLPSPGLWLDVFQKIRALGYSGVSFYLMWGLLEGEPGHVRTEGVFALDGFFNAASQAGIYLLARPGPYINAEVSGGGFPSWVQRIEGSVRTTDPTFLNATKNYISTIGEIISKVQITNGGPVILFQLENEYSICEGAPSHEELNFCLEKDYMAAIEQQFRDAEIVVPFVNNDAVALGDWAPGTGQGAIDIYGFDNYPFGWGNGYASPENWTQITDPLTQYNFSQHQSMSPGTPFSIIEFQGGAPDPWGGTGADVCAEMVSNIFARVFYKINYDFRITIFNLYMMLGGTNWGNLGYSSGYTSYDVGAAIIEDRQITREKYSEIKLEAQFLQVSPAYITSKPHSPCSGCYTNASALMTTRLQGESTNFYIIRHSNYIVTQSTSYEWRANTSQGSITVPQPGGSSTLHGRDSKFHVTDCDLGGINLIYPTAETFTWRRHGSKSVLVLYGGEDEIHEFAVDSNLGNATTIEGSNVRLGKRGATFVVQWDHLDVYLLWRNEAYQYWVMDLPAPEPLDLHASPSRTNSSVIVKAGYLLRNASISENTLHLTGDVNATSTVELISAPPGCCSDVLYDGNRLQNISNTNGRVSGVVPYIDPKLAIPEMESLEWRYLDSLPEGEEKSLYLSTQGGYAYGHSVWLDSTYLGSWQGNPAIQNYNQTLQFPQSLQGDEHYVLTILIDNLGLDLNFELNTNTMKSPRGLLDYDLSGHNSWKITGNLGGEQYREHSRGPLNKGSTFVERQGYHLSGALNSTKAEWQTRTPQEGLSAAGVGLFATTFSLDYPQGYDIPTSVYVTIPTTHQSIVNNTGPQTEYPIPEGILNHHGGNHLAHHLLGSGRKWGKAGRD

[8] = tested on: Prunus dulcis; assay: as §1

Sequence of Alpha-galactosidase (Q42656 whole entry): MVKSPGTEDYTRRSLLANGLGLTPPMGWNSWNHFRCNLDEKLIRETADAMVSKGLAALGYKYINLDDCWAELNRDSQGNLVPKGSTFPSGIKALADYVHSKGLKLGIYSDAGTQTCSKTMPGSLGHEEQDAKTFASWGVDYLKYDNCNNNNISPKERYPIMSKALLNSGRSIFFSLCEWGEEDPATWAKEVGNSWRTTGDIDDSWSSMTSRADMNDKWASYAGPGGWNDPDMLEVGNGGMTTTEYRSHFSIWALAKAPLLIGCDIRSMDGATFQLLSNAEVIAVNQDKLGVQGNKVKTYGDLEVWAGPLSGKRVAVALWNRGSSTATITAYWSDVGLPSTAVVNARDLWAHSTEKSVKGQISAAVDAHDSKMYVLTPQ

Structure (SMILES) | IC50 [1] [µM] | IC50 [2] [µM] | IC50 [3] [µM] | inhibition [4] | inhibition [5] | inhibition [6] | IC50 [7] [µM] | inhibition [8]
CCCCCCCCN[C@@H]1C=C(CO)[C@@H](O)[C@H](O)[C@H]1O | 2.9 | 47 | > 1000 |  |  |  |  | 
CCCCCCCCN[C@@H]1C=C(CO)[C@H](O)[C@H](O)[C@H]1O | 4.5 | 8.1 | 4.5 | inactive | inactive | inactive | 85 | Active
